Assay results from the supplement of paper PMC5908809.

Key:
[1] = test system: normal NK cells expanded with K562-aAPC; assay: percent inhibition of viability; higher = more inhibition; details: 72 h, IL-2 2.5 ng/mL
Procedure: (§1)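 Drug sensitivity and resistance testing on K562-aAPC-expanded normal NK cells: 5 concentrations (10-fold steps over a 10,000-fold range), 72 h at 37 °C, viability by CellTiter-Glo normalised to DMSO and benzethonium chloride controls; DSS from the fitted curve.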

DERL-7 (IL-2 2.5 ng/mL) [2] = assay: as above; details: 72 h
IMC-1 (IL-2 20 ng/mL) [3] = assay: as above; details: 72 h
KAI3 (IL-2 2.5 ng/mL) [4] = assay: as above; details: 72 h
KHYG-1 (IL-2 2.5 ng/mL) [5] = assay: as above; details: 72 h
NK-92 (IL-2 2.5 ng/mL) [6] = assay: as above; details: 72 h
NK-YS (IL-2 2.5 ng/mL) [7] = assay: as above; details: 72 h
NKL (IL-2 2.5 ng/mL) [8] = assay: as above; details: 72 h
SNK-6 (IL-2 2.5 ng/mL) [9] = assay: as above; details: 72 h
YT (IL-2 2.5 ng/mL) [10] = assay: as above; details: 72 h
[11] = test system: normal primary NK cells, pool 1 (3 donors) (IL-2 2.5 ng/mL); assay: as above; details: 72 h
[12] = test system: normal primary NK cells, pool 1 (3 donors), resting (IL-2 0 ng/mL); assay: as above; details: 72 h
[13] = test system: normal primary NK cells, pool 2 (3 donors) (IL-2 2.5 ng/mL); assay: as above; details: 72 h
[14] = test system: normal primary NK cells, pool 3 (3 donors) (IL-2 2.5 ng/mL); assay: as above; details: 72 h
[15] = test system: normal NK cells expanded with K562-aAPC; assay: drug sensitivity score (DSS) (DSS units); higher = more sensitive; extreme values may be limits of the assay; details: 72 h; IL-2 2.5 ng/mL
Procedure: as §1

DERL-7 (IL-2 2.5 ng/mL) [16] = assay: as above; details: 72 h
IMC-1 (IL-2 20 ng/mL) [17] = assay: as above; details: 72 h
KAI3 (IL-2 2.5 ng/mL) [18] = assay: as above; details: 72 h
KHYG-1 (IL-2 2.5 ng/mL) [19] = assay: as above; details: 72 h
NK-92 (IL-2 2.5 ng/mL) [20] = assay: as above; details: 72 h
NK-YS (IL-2 2.5 ng/mL) [21] = assay: as above; details: 72 h
NKL (IL-2 2.5 ng/mL) [22] = assay: as above; details: 72 h
SNK-6 (IL-2 2.5 ng/mL) [23] = assay: as above; details: 72 h
YT (IL-2 2.5 ng/mL) [24] = assay: as above; details: 72 h
[25] = test system: normal primary NK cells, pool 1 (3 donors) (IL-2 2.5 ng/mL); assay: as above; details: 72 h
[26] = test system: normal primary NK cells, pool 1 (3 donors), resting (IL-2 0 ng/mL); assay: as above; details: 72 h
[27] = test system: normal primary NK cells, pool 2 (3 donors) (IL-2 2.5 ng/mL); assay: as above; details: 72 h
[28] = test system: normal primary NK cells, pool 3 (3 donors) (IL-2 2.5 ng/mL); assay: as above; details: 72 h

CC(=O)Nc1ccc(C(=O)Nc2ccccc2N)cc1 [Tacedinaline] (max concentration tested 1000 nM)
percent inhibition of viability [%]
Details | 0.1 nM | 1 nM | 10 nM | 100 nM | 1000 nM
DERL-7 (IL-2 2.5 ng/mL) [2] | -0.72 | 2.51 | 4.2 | -1.26 | -25
IMC-1 (IL-2 20 ng/mL) [3] | -3.66 | -4.64 | -1.29 | 1.46 | 17.6
KAI3 (IL-2 2.5 ng/mL) [4] | -0.2 | 1.1 | -0.46 | -0.59 | 35.3
KHYG-1 (IL-2 2.5 ng/mL) [5] | -0.97 | -4.06 | -3.24 | 4.27 | 16.5
NK-92 (IL-2 2.5 ng/mL) [6] | -18.8 | 2.67 | -7.86 | 1.73 | 27.5
NK-YS (IL-2 2.5 ng/mL) [7] | -0.71 | -3.09 | -0.76 | 2.62 | 20.6
NKL (IL-2 2.5 ng/mL) [8] | -13.2 | -9.56 | -8.35 | 10.4 | 13.4
SNK-6 (IL-2 2.5 ng/mL) [9] | 1.48 | -10.9 | -5.83 | 1.17 | 46.3
YT (IL-2 2.5 ng/mL) [10] | -4.71 | -3.94 | -0.65 | 4.76 | 25.3
[1] | -1.06 | -4 | -3.33 | 3.27 | 14
[11] | -1.61 | 16.8 | 8.47 | 8.43 | 13
[12] | -5.67 | 17.3 | 11.8 | 17 | 7.91
[13] | -2.79 | 13 | 9.29 | 6.96 | 7.45
[14] | -4.4 | 14.9 | 12.8 | -1.16 | -0.28

Details | drug sensitivity score
DERL-7 (IL-2 2.5 ng/mL) [16] | 0
IMC-1 (IL-2 20 ng/mL) [17] | 0.58
KAI3 (IL-2 2.5 ng/mL) [18] | 1.62
KHYG-1 (IL-2 2.5 ng/mL) [19] | 0.78
NK-92 (IL-2 2.5 ng/mL) [20] | 1.36
NK-YS (IL-2 2.5 ng/mL) [21] | 1
NKL (IL-2 2.5 ng/mL) [22] | 0.67
SNK-6 (IL-2 2.5 ng/mL) [23] | 2.54
YT (IL-2 2.5 ng/mL) [24] | 1.69
[15] | 0.42
[25] | 0.6
[26] | 5.06
[27] | 0
[28] | 0

Cc1nc(C(=O)NCC(=O)O)c(O)c2ccc(Oc3ccccc3)cc12 [FG-4592] (max concentration tested 10000 nM)
percent inhibition of viability [%]
Details | 1 nM | 10 nM | 100 nM | 1000 nM | 10000 nM
DERL-7 (IL-2 2.5 ng/mL) [2] | -0.63 | 3.45 | 4.49 | 0.12 | 6.99
IMC-1 (IL-2 20 ng/mL) [3] | -3.51 | -1.09 | 1.25 | -1.57 | 22.9
KAI3 (IL-2 2.5 ng/mL) [4] | 1.56 | -2.99 | 1.6 | -0.39 | 17.9
KHYG-1 (IL-2 2.5 ng/mL) [5] | 0.18 | -1.43 | 2.3 | 3.63 | 19.2
NK-92 (IL-2 2.5 ng/mL) [6] | -0.86 | -2.06 | 10.9 | 12.5 | 8.29
NK-YS (IL-2 2.5 ng/mL) [7] | -2.71 | -1.91 | 3.2 | 3.83 | 27.3
NKL (IL-2 2.5 ng/mL) [8] | -14 | -13 | -11.3 | -0.19 | 22.6
SNK-6 (IL-2 2.5 ng/mL) [9] | 3.91 | -11.4 | 5.11 | 2.73 | 28
YT (IL-2 2.5 ng/mL) [10] | 1.14 | -2.12 | -1.6 | -8.84 | 8.38
[1] | -0.43 | -0.13 | -0.05 | 6.19 | 12.6
[11] | 0.46 | 1.21 | -8.95 | -4.43 | -4.71
[12] | 5.05 | -14.3 | 2.92 | -12.2 | -4.7
[13] | -11.8 | -5.39 | -6.37 | 1.43 | 10.4
[14] | -2.12 | -3.88 | -1.26 | 5.12 | 5.24

Details | drug sensitivity score
DERL-7 (IL-2 2.5 ng/mL) [16] | 0
IMC-1 (IL-2 20 ng/mL) [17] | 0.7
KAI3 (IL-2 2.5 ng/mL) [18] | 0.42
KHYG-1 (IL-2 2.5 ng/mL) [19] | 1
NK-92 (IL-2 2.5 ng/mL) [20] | 1.18
NK-YS (IL-2 2.5 ng/mL) [21] | 1.72
NKL (IL-2 2.5 ng/mL) [22] | 0.76
SNK-6 (IL-2 2.5 ng/mL) [23] | 1.59
YT (IL-2 2.5 ng/mL) [24] | 0
[15] | 0.37
[25] | 0
[26] | 0
[27] | 0
[28] | 0

CCNC(=O)c1noc(-c2cc(C(C)C)c(O)cc2O)c1-c1ccc(CN2CCOCC2)cc1 [Luminespib] (max concentration tested 1000 nM)
percent inhibition of viability [%]
Details | 0.1 nM | 1 nM | 10 nM | 100 nM | 1000 nM
DERL-7 (IL-2 2.5 ng/mL) [2] | 2.4 | 1.89 | 99.7 | 100 | 100
IMC-1 (IL-2 20 ng/mL) [3] | -0.63 | -3.7 | 51.6 | 99.6 | 99.7
KAI3 (IL-2 2.5 ng/mL) [4] | 1.34 | 8.03 | 88.8 | 100 | 97.7
KHYG-1 (IL-2 2.5 ng/mL) [5] | -1.01 | 1.79 | 47.7 | 102 | 99.4
NK-92 (IL-2 2.5 ng/mL) [6] | -9.62 | -1.81 | 66.9 | 97.9 | 95
NK-YS (IL-2 2.5 ng/mL) [7] | -0.03 | 4.35 | 89.3 | 98.7 | 97.7
NKL (IL-2 2.5 ng/mL) [8] | -1.62 | -1.66 | 87.8 | 86.7 | 85.5
SNK-6 (IL-2 2.5 ng/mL) [9] | -5.65 | 9.52 | 35.8 | 85.2 | 87.3
YT (IL-2 2.5 ng/mL) [10] | -1.24 | -3.01 | 7.32 | 89.6 | 92.1
[1] | -2.12 | -2.95 | 97.5 | 97.4 | 97.4
[11] | -3.81 | 5.41 | 76.8 | 82.5 | 86.2
[12] | -4.56 | -1.24 | 21.2 | 46.8 | 48.1
[13] | -11.3 | 0.74 | 74.2 | 74.9 | 76
[14] | -20 | -6.55 | 68.1 | 75.4 | 77.5

Details | drug sensitivity score
DERL-7 (IL-2 2.5 ng/mL) [16] | 30.7
IMC-1 (IL-2 20 ng/mL) [17] | 24.3
KAI3 (IL-2 2.5 ng/mL) [18] | 29.8
KHYG-1 (IL-2 2.5 ng/mL) [19] | 24
NK-92 (IL-2 2.5 ng/mL) [20] | 25.4
NK-YS (IL-2 2.5 ng/mL) [21] | 29.1
NKL (IL-2 2.5 ng/mL) [22] | 26.9
SNK-6 (IL-2 2.5 ng/mL) [23] | 19.6
YT (IL-2 2.5 ng/mL) [24] | 17.6
[15] | 29.5
[25] | 25.7
[26] | 11.5
[27] | 23.5
[28] | 22.2
